Counter-ions that a name gives are not always drawn.
System: c-Myc
Assay: c-Myc immunofluorescence assay
Type: cell-based, human
Details: A549 cells, 24 hours treatment, anti-c-Myc immunofluorescence
In short: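 High-content imaging (20×) of PFA-fixed A549 cells immunostained for c-Myc with DAPI nuclei, after 24 h compound treatment at increasing concentrations. Per-cell c-Myc signal in identified cell regions was plotted against dose and fitted by logistic regression to give EC50.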

| Compound | Myc Efficacy (−LogEC50) |
| --- | --- |
| CCN(CC)CCCNC(=O)c1ccc2c(c1)sc1nc(-c3ccc(C(=O)NC(C)C)cc3)cn12 [compound 283, N-(3-(diethylamino)propyl)-2-(4-(isopropylcarbamoyl)phenyl) benzo[d]imidazo[2,1-b]thiazole-7-carboxamide] | + (+ >3 and <5) |
| CC[C@@H](CO)NC(=O)c1ccc2c(c1)sc1nc(-c3ccc(C(=O)NC)cc3)cn12 [compound 188, (S)-N-(1-hydroxybutan-2-yl)-2-(4-(methylcarbamoyl)phenyl) benzo[d]imidazo[2,1-b]thiazole-7-carboxamide] | + (+ >3 and <5) |
| CNC(=O)c1ccc(-c2cn3c(n2)sc2cc(C(=O)NCCC4(O)CCCC4)ccc23)cc1 [compound 260, N-(2-(1-hydroxycyclopentyl)ethyl)-2-(4-(methylcarbamoyl)phenyl) benzo[d]imidazo[2,1-b]thiazole-7-carboxamide] | − (− ≤3) |
| CCN(CC)CCCNC(=O)c1ccc2c(c1)sc1nc(-c3cc(C)ccc3F)cn12 [compound 144, N-(3-(diethylamino)propyl)-2-(2-fluoro-5-methylphenyl)benzo[d] imidazo[2,1-b]thiazole-7-carboxamide] | + (+ >3 and <5) |
| CCN(CC)CCCNC(=O)c1ccc2c(c1)sc1nc(-c3ccc(CNCCOC)cc3)cn12 [compound 292, N-(3-(diethylamino)propyl)-2-(4-(((2-methoxyethyl)amino)methyl)phenyl)benzo[d]imidazo[2,1-b]thiazole-7-carboxamide] | +++ (+++ ≥6) |
| CN1CCC(NC(=O)c2ccc3c(c2)sc2nc(-c4ccc([C@@H]5CCCN5)cc4F)cn23)CC1 [Compound 503S, (S)-2-(2-fluoro-4-(pyrrolidin-2-yl)phenyl)-N-(1-methylpiperidin-4-yl)benzo[d]imidazo[2,1-b]thiazole-7-carboxamide] | +++ (+++ ≥6) |
| CCCNC(=O)c1ccc2c(c1)sc1nc(-c3ccc(C)cc3)cn12 [compound 108, N-propyl-2-(p-tolyl)benzo[d]imidazo[2,1-b]thiazole-7-carboxamide] | ++ (++ ≥5 and <6) |
| CNC(=O)c1ccc(-c2cn3c(n2)sc2cc(C(=O)N[C@H]4CCCN(C)C4)ccc23)cc1 [compound 207, (S)-2-(4-(methylcarbamoyl)phenyl)-N-(1-methylpiperidin-3-yl)benzo[d]imidazo[2,1-b]thiazole-7-carboxamide] | ++ (++ ≥5 and <6) |
| CCNC(=O)c1ccc2c(c1)sc1nc(-c3ccc(C)cc3)cn12 [compound 109, N-ethyl-2-(p-tolyl)benzo[d]imidazo[2,1-b]thiazole-7-carboxamide] | ++ (++ ≥5 and <6) |
| CN1C2CCC1CC(NC(=O)c1ccc3c(c1)sc1nc(-c4ccc([C@@H]5CCCN5)cc4F)cn13)C2 (stereo partly shown) [compound 531, 2-(2-fluoro-4-(pyrrolidin-2-yl)phenyl)-N-(8-methyl-8-azabicyclo[3.2.1]octan-3-yl)benzo[d]imidazo[2,1-b]thiazole-7-carboxamide] | ++ (++ ≥5 and <6) |
| O=C1CCCC(c2ccc(-c3cn4c(n3)sc3cc(C(=O)NCCCN5CCC(F)CC5)ccc34)c(F)c2)N1 (stereo not shown) [compound 486] | ++ (++ ≥5 and <6) |
| CNC(=O)c1ccc(-c2cn3c(n2)sc2cc(C(=O)NCC[C@@H]4CCCN4C)ccc23)cc1 [compound 303, (S)-2-(4-(methylcarbamoyl)phenyl)-N-(2-(1-methylpyrrolidin-2-yl)ethyl)benzo[d]imidazo [2,1-b]thiazole-7-carboxamide] | + (+ >3 and <5) |
| CCN(CC)CCCNC(=O)c1ccc2c(c1)sc1nc(-c3ccc(CNC4CC4)cc3)cn12 [compound 300, 2-(4-((cyclopropylamino)methyl)phenyl)-N-(3-(diethylamino)propyl)benzo [d]imidazo[2,1-b]thiazole-7-carboxamide] | +++ (+++ ≥6) |
| CNC(=O)c1ccc(-c2cn3c(n2)sc2cc(C(=O)N[C@H](C)C4CC4)ccc23)cc1 [compound 274, (R)-N-(1-cyclopropylethyl)-2-(4-(methylcarbamoyl)phenyl) benzo[d]imidazo[2,1-b]thiazole-7-carboxamide] | + (+ >3 and <5) |
| CCN(CC)CCCNC(=O)c1ccc2c(c1)sc1nc(-c3ccc(C(=O)NC4CCNCC4)cc3)cn12 [compound 287, N-(3-(diethylamino)propyl)-2-(4-(piperidin-4-ylcarbamoyl)phenyl)benzo [d]imidazo[2,1-b]thiazole-7-carboxamide] | + (+ >3 and <5) |
| CNC(=O)c1ccc(-c2cn3c(n2)sc2cc(C(=O)NCCCN4CCC(F)CC4)ccc23)c(F)c1 [compound 320, 2-(2-fluoro-4-(methylcarbamoyl)phenyl)-N-(3-(4-fluoropiperidin-1-yl)propyl)benzo[d]imidazo [2,1-b]thiazole-7-carboxamide] | +++ (+++ ≥6) |

| Compound | Myc Efficacy (−LogEC50) |
| --- | --- |
| CCN(CC)CCCNC(=O)c1ccc2c(c1)sc1nc(-c3ccc(N4CCCC4=O)cc3)cn12 [compound 179, N-(3-(diethylamino)propyl)-2-(4-(2-oxopyrrolidin-1-yl)phenyl)benzo[d]imidazo [2,1-b]thiazole-7-carboxamide] | + (+ >3 and <5) |
| CNC(=O)c1ccc(-c2cn3c(n2)sc2cc(C(=O)NCc4nncn4C4CC4)ccc23)cc1 [compound 223, N-((4-cyclopropyl-4H-1,2,4-triazol-3-yl)methyl)-2-(4-(methylcarbamoyl)phenyl) benzo[d]imidazo[2,1-b]thiazole-7-carboxamide] | − (− ≤3) |
| CCN(CC)CCCNC(=O)c1ccc2c(c1)sc1nc(-c3cccc(C(C)C)c3)cn12 [compound 169, N-(3-(diethylamino)propyl)-2-(3-isopropylphenyl)benzo[d] imidazo[2,1-b]thiazole-7-carboxamide] | ++ (++ ≥5 and <6) |
| CNC(=O)c1ccc(-c2cn3c(n2)sc2cc(C(=O)N[C@H]4[C@@H]5CNC[C@@H]54)ccc23)cc1 [compound 253, N-((1R,5S,6s)-3-azabicyclo[3.1.0]hexan-6-yl)-2-(4-(methylcarbamoyl)phenyl) benzo[d]imidazo[2,1-b]thiazole-7-carboxamide] | + (+ >3 and <5) |
| CCN(CC)CCCN(C)C(=O)c1ccc2c(c1)sc1nc(-c3ccc(C(=O)NC)cc3F)cn12 [compound 333, N-(3-(diethylamino)propyl)-2-(2-fluoro-4-(methylcarbamoyl)phenyl)-N-methylbenzo[d]imidazo[2,1-b]thiazole-7-carboxamide] | + (+ >3 and <5) |
| CCN(CC)CCCNC(=O)c1ccc2c(c1)sc1nc(-c3cc(F)c(CNC4CC4)cc3F)cn12 [compound 334, 2-(4-((cyclopropylamino)methyl)-2,5-difluorophenyl)-N-(3-(diethylamino)propyl)benzo [d]imidazo[2,1-b]thiazole-7-carboxamide] | ++ (++ ≥5 and <6) |
| CCN(CC)CCCNC(=O)c1ccc2c(c1)sc1nc(-c3cccc(F)c3)cn12 [compound 130, N-(3-(diethylamino)propyl)-2-(3-fluorophenyl)benzo[d] imidazo[2,1-b]thiazole-7-carboxamide] | ++ (++ ≥5 and <6) |
| CNC(=O)c1ccc(-c2cn3c(n2)sc2cc(C(=O)NCCCn4nc(C)cc4C)ccc23)cc1 [compound 232, N-(3-(3,5-dimethyl-1H-pyrazol-1-yl)propyl)-2-(4-(methylcarbamoyl)phenyl) benzo[d]imidazo[2,1-b]thiazole-7-carboxamide] | − (− ≤3) |
| CNC(=O)c1ccc(-c2cn3c(n2)sc2cc(C(=O)NCCN4CCN(C)CC4)ccc23)cc1 [compound 184, 2-(4-(methylcarbamoyl)phenyl)-N-(2-(4-methylpiperazin-1-yl)ethyl)benzo[d]imidazo [2,1-b]thiazole-7-carboxamide] | + (+ >3 and <5) |
| CCNCCCNC(=O)c1ccc2c(c1)sc1nc(-c3cccc(C)c3)cn12 [compound 155] | ++ (++ ≥5 and <6) |
| CN1CCC(NC(=O)c2ccc3c(c2)sc2nc(-c4ccc(C5CCNC5)cc4F)cn23)CC1 (stereo not shown) [Compound 505, 2-(2-fluoro-4-(pyrrolidin-3-yl)phenyl)-N-(1-methylpiperidin-4-yl)benzo[d]imidazo[2,1-b]thiazole-7-carboxamide] | +++ (+++ ≥6) |
| CNC(=O)c1ccc(-c2cn3c(n2)sc2cc(C(=O)N[C@H]4CCCNC4)ccc23)cc1 [compound 227, (S)-2-(4-(methylcarbamoyl)phenyl)-N-(piperidin-3-yl)benzo[d] imidazo[2,1-b]thiazole-7-carboxamide] | ++ (++ ≥5 and <6) |
| CNC(=O)c1ccc(-c2cn3c(n2)sc2cc(C(=O)NCC(=O)NCC(F)(F)F)ccc23)cc1 [compound 255, 2-(4-(methylcarbamoyl)phenyl)-N-(2-oxo-2-((2,2,2-trifluoroethyl)amino)ethyl) benzo[d]imidazo[2,1-b]thiazole-7-carboxamide] | − (− ≤3) |
| CNC(=O)c1ccc(-c2cn3c(n2)sc2cc(C(=O)NCCOC(C)C)ccc23)cc1 [compound 211, N-(2-isopropalyethyl)-2-(4-(methylcarbamoyl)phenyl) benzo[d]imidazo[2,1-b]thiazole-7-carboxamide] | − (− ≤3) |
| Cc1c(-c2ccc([C@H]3CCCN3)cc2F)nc2sc3cc(C(=O)NCCCN4CCC(F)CC4)ccc3n12 [Compound 464R, (R)-2-(2-fluoro-4-(pyrrolidin-2-yl)phenyl)-N-(3-(4-fluoropiperidin-1-yl)propyl)-3-methylbenzo[d]imidazo[2,1-b]thiazole-7-carboxamide dihydrochloride] | +++ (+++ ≥6) |
